Results reported in US11999794B2, “Human mesothelin chimeric antigen receptors and uses thereof” (Novartis AG, priority 2013, dated 2024).

Assay: Adverse event and safety assessment of RAD001 in elderly volunteers
Type: in vivo, human
Conditions: for Incidence of treatment-related AE: Blood cholesterol increased / Incidence of treatment-related AE: Conjunctivitis / Incidence of treatment-related AE: Diarrhea / Incidence of treatment-related AE: Dry mouth / Incidence of treatment-related AE: Dyspepsia / Incidence of treatment-related AE: Erythema / Incidence of treatment-related AE: Fatigue / Incidence of treatment-related AE: Headache / Incidence of treatment-related AE: Insomnia / Incidence of treatment-related AE: Limb discomfort / Incidence of treatment-related AE: Low density lipoprotein increased / Incidence of treatment-related AE: Mouth ulceration / Incidence of treatment-related AE: Mucosal inflammation / Incidence of treatment-related AE: Neutropenia / Incidence of treatment-related AE: Oral pain / Incidence of treatment-related AE: Paresthesia oral / Incidence of treatment-related AE: Pruritus / Incidence of treatment-related AE: Stomatitis / Incidence of treatment-related AE: Thrombocytopenia / Incidence of treatment-related AE: Tongue ulceration / Incidence of treatment-related AE: Urinary tract infection / Treatment-related AEs: Patients with AE(s) / Treatment-related AEs: Total AE(s): N = 53
Procedure: Adverse event assessment and blood collection for hematologic and biochemical safety assessments were performed during study visits. Adverse event information was also collected in diaries that subjects filled out at home during the 6 weeks they were on study drug. Data on all adverse events were collected from the time of informed consent until 30 days after the last study visit. Events were classified by the investigators as mild, moderate or severe.

CO[C@H]1C[C@@H]2CC[C@@H](C)[C@@](O)(O2)C(=O)C(=O)N2CCCC[C@H]2C(=O)O[C@H]([C@H](C)C[C@@H]2CC[C@@H](OCCO)[C@H](OC)C2)CC(=O)[C@H](C)/C=C(\C)[C@@H](O)[C@@H](OC)C(=O)[C@H](C)C[C@H](C)/C=C/C=C/C=C/1C [RAD001, (1R,9S,12S,15R,16E,18R,19R,21R,23 S,24E,26E,28E,30S,32S,35R)-1,18-dihydroxy-12-{(1R)-2-[(1 S,3R,4R)-4-(2-hydroxyethoxy)-3-methoxycyclohexyl]-1-methylethyl}-19,30-dimethoxy-15,17,21,23,29,35-hexamethyl-11,36-dioxa-4-aza-tricyclo[30.3.1.04,9]hexatriaconta-16,24,26,28-tetraene-2,3,10,14,20-pentaone]
2 (3.8%) n (%): Incidence of treatment-related AE: Blood cholesterol increased (0.5 mg daily) | Incidence of treatment-related AE: Low density lipoprotein increased (0.5 mg daily) | Incidence of treatment-related AE: Paresthesia oral (0.5 mg daily) | Incidence of treatment-related AE: Blood cholesterol increased (5 mg weekly) | Incidence of treatment-related AE: Conjunctivitis (5 mg weekly) | Incidence of treatment-related AE: Erythema (5 mg weekly) | Incidence of treatment-related AE: Fatigue (5 mg weekly) | Incidence of treatment-related AE: Headache (5 mg weekly) | Incidence of treatment-related AE: Insomnia (5 mg weekly) | Incidence of treatment-related AE: Limb discomfort (5 mg weekly) | Incidence of treatment-related AE: Mouth ulceration (5 mg weekly) | Incidence of treatment-related AE: Oral pain (5 mg weekly) | Incidence of treatment-related AE: Pruritus (5 mg weekly) | Incidence of treatment-related AE: Blood cholesterol increased (20 mg weekly) | Incidence of treatment-related AE: Dry mouth (20 mg weekly) | Incidence of treatment-related AE: Dyspepsia (20 mg weekly) | Incidence of treatment-related AE: Low density lipoprotein increased (20 mg weekly) | Incidence of treatment-related AE: Mucosal inflammation (20 mg weekly) | Incidence of treatment-related AE: Stomatitis (20 mg weekly) | Incidence of treatment-related AE: Thrombocytopenia (20 mg weekly) | Incidence of treatment-related AE: Urinary tract infection (20 mg weekly)
22 (41.5%) n (%): Treatment-related AEs: Patients with AE(s) (0.5 mg daily)
20 (37.7%) n (%): Treatment-related AEs: Patients with AE(s) (5 mg weekly)
46: Treatment-related AEs: Total AE(s) (5 mg weekly)
well tolerated: tolerability (particularly 0.5 mg daily and 5 mg weekly)
assessed as unrelated to RAD001: serious adverse events (SAEs), relation to drug (three subjects, four SAEs)
35: Treatment-related AEs: Total AE(s) (0.5 mg daily)
Only one severe AE: severe AEs assessed as related (mouth ulcers, 20 mg weekly)
0 n (%): Incidence of treatment-related AE: Conjunctivitis (0.5 mg daily) | Incidence of treatment-related AE: Dry mouth (0.5 mg daily) | Incidence of treatment-related AE: Dyspepsia (0.5 mg daily) | Incidence of treatment-related AE: Erythema (0.5 mg daily) | Incidence of treatment-related AE: Fatigue (0.5 mg daily) | Incidence of treatment-related AE: Headache (0.5 mg daily) | Incidence of treatment-related AE: Limb discomfort (0.5 mg daily) | Incidence of treatment-related AE: Mucosal inflammation (0.5 mg daily) | Incidence of treatment-related AE: Neutropenia (0.5 mg daily) | Incidence of treatment-related AE: Oral pain (0.5 mg daily) | Incidence of treatment-related AE: Pruritus (0.5 mg daily) | Incidence of treatment-related AE: Stomatitis (0.5 mg daily) | Incidence of treatment-related AE: Thrombocytopenia (0.5 mg daily) | Incidence of treatment-related AE: Urinary tract infection (0.5 mg daily) | Incidence of treatment-related AE: Dry mouth (5 mg weekly) | Incidence of treatment-related AE: Mucosal inflammation (5 mg weekly) | Incidence of treatment-related AE: Neutropenia (5 mg weekly) | Incidence of treatment-related AE: Paresthesia oral (5 mg weekly) | Incidence of treatment-related AE: Stomatitis (5 mg weekly) | Incidence of treatment-related AE: Thrombocytopenia (5 mg weekly) | Incidence of treatment-related AE: Urinary tract infection (5 mg weekly) | Incidence of treatment-related AE: Conjunctivitis (20 mg weekly) | Incidence of treatment-related AE: Erythema (20 mg weekly) | Incidence of treatment-related AE: Limb discomfort (20 mg weekly) | Incidence of treatment-related AE: Paresthesia oral (20 mg weekly) | Incidence of treatment-related AE: Tongue ulceration (20 mg weekly)
No deaths: deaths during the study (human, in vivo)
109: Treatment-related AEs: Total AE(s) (20 mg weekly)
mouth ulcer: most common related AE (majority of mild severity)
27 (50.9%) n (%): Treatment-related AEs: Patients with AE(s) (20 mg weekly)
4 (7.5%) n (%): Incidence of treatment-related AE: Diarrhea (5 mg weekly) | Incidence of treatment-related AE: Fatigue (20 mg weekly)
1 (1.9%) n (%): Incidence of treatment-related AE: Diarrhea (0.5 mg daily) | Incidence of treatment-related AE: Insomnia (0.5 mg daily) | Incidence of treatment-related AE: Low density lipoprotein increased (5 mg weekly) | Incidence of treatment-related AE: Tongue ulceration (5 mg weekly) | Incidence of treatment-related AE: Diarrhea (20 mg weekly) | Incidence of treatment-related AE: Insomnia (20 mg weekly) | Incidence of treatment-related AE: Oral pain (20 mg weekly) | Incidence of treatment-related AE: Pruritus (20 mg weekly)
6 (11.3%) n (%): Incidence of treatment-related AE: Mouth ulceration (0.5 mg daily)
9 (17.0%) n (%): Incidence of treatment-related AE: Headache (20 mg weekly) | Incidence of treatment-related AE: Mouth ulceration (20 mg weekly)
3 (5.7%) n (%): Incidence of treatment-related AE: Tongue ulceration (0.5 mg daily) | Incidence of treatment-related AE: Dyspepsia (5 mg weekly) | Incidence of treatment-related AE: Neutropenia (20 mg weekly)
